Laboratory results: patent US8524866B2, “Antibodies to the alpha-7 nicotinic receptors and methods of treating inflammatory disorders with the same” (The Feinstein Institute for Medical Research, priority 2005, dated 2013)

Target: α-bungarotoxin-binding nicotinic receptors on primary human macrophages (Homo sapiens, UniProt P36544)
Sequence (P36544 23-502): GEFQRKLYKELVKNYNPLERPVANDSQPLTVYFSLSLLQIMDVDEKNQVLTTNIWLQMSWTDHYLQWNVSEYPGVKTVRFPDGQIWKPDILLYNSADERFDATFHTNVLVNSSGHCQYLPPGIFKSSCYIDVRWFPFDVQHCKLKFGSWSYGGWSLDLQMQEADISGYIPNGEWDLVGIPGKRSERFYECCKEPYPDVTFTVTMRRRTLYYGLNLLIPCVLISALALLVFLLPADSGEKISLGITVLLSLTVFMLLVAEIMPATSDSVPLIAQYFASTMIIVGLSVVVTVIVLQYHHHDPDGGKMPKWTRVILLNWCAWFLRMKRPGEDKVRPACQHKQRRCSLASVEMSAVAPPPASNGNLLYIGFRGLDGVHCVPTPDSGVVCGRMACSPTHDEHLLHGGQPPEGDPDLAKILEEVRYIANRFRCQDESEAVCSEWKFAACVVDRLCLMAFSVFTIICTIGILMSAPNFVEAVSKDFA

Compound	effect on intensity of α-bungarotoxin binding	binding on the macrophage surface
CN1CCCC1c1cccnc1 (centres unmarked) [Nicotine]	markedly reduced	–
α-bungarotoxin	–	Strong binding
